Reference: patent EP0319030A1, “Aminopropanol derivatives of 1,4:3,6-dianhydro-hexitol nitrates, processes for their preparation and their use as medicaments” (Heinrich Mack Nachf., priority 1987, dated 1989)
Marks after values point to notes of the source that are not given here.

Experiments:
Type in all cases: in vivo
Mice = test: Peroral tolerance in mice; details: mouse, in vivo
Description: Set forth below is data obtained on the compounds of Examples 17, 19 and 20 that illustrates the pharmacological action of the compounds of the present invention.

conscious beagle dogs = test: Systolic blood pressure and heart rate following peroral administration; details: 5.0 mg/kg peroral, mean ± SEM
Description: (§1) In particular, they have a pronounced cardiovascular action. On isolated strips of veins from dogs, they act against the K⁺-induced contraction in a lower concentration than on aorta strips. On isolated hearts from guinea pigs, they increase coronary flow as a function of the dose. On anesthetized rats, they prevent lypressin coronary spasm as a function of the dose and significiantly increase the survival rate of rats following acute cardiac infarction. On normotensive conscious dogs, they lower the systolic blood pressure for a period of 6-8 hours after oral administration. On artifically respirated anesthetized, thoraxotomized dogs, they reduce the mean arterial pressure, the left ventricular systolic pressure, the left ventricular end diastolic pressure and the pressure in the Arteria pulmonalis and reduce the peripheral vascular resistance. In contrast to the known organic nitrate esters, they also lead to a long-lasting reduction in the systolic blood pressure of spontaneously hypertensive rats. Such an action profile is not known for any of the substances of similar structure which have already been described.

rats = test: Survival rate after acute coronary ligature, method of I. Lepran et al.; details: 100.0 mg/kg orally 5 minutes before ligature
Description: as §1

anesthetized dogs = test: Cardiovascular actions following intra-venous administration, opened thorax and artificial respiration; details: opened thorax, artificial respiration
Description: as §1

anesthetized rat = test: Lypressin-induced T-wave increase in the ECG (lypressin coronary spasm), method of M. Leitold et al.
Description: as §1

COc1ccccc1N1CCN(CC(O)CO[C@H]2CO[C@H]3[C@@H]2OC[C@@H]3O[N+](=O)[O-])CC1 (some centres unmarked) [Example 20, 5-O-<3-[4-(2-Methoxyphenyl)-piprazinyl]-2-hydroxypropyl>-isoidide-2-nitrate]
tolerance (clinical symptoms, fatal consequences) (Mice): without clinical symptoms and without fatal consequences | HR (heart rate), Action of substance after 1 hours (conscious beagle dogs): 98 ± 7 Bts/M | HR (heart rate), Action of substance after 2 hours (conscious beagle dogs): 109 ± 10 Bts/M | HR (heart rate), Action of substance after 4 hours (conscious beagle dogs): 82 ± 7 Bts/M | HR (heart rate), Action of substance after 6 hours (conscious beagle dogs): 78 ± 6 Bts/M | HR (heart rate), Action of substance after 8 hours (conscious beagle dogs): 77 ± 6 Bts/M | SBP (systolic blood pressure), Action of substance after 1 hours (conscious beagle dogs): 97 ± 8 mmHg | SBP (systolic blood pressure), Action of substance after 2 hours (conscious beagle dogs): 95 ± 6 mmHg | SBP (systolic blood pressure), Action of substance after 4 hours (conscious beagle dogs): 106 ± 4 mmHg | SBP (systolic blood pressure), Action of substance after 6 hours (conscious beagle dogs): 113 ± 4 mmHg | SBP (systolic blood pressure), Action of substance after 8 hours (conscious beagle dogs): 121 ± 3 mmHg | Number of rats surviving after an acute coronary ligature, 24 hours (rats; control 21/80): 14/20* | Number of rats surviving after an acute coronary ligature, 7 days (rats; control 21/80): 14/20* | Number of rats surviving after an acute coronary ligature, 60 minutes (rats; control 23/80): 14/20* | CO, Action of substance (anesthetized dogs; 30 µg/kg intra-venous): 0.81 ± 0.3 l/M | CO, Change (anesthetized dogs; 30 µg/kg intra-venous): 0.38 ± 0.1 l/M | CO, Duration of action (anesthetized dogs; 30 µg/kg intra-venous): 12 ± 6 min | HR (heart rate), Action of substance (anesthetized dogs; 30 µg/kg intra-venous): 192 ± 10 Bts/M | HR (heart rate), Change (anesthetized dogs; 30 µg/kg intra-venous): 2 ± 2 Bts/M | HR (heart rate), Duration of action (anesthetized dogs; 30 µg/kg intra-venous): 11 ± 4 min | LVEDP (left ventricular enddiastolic pressure), Action of substance (anesthetized dogs; 30 µg/kg intra-venous): 7.5 ± 1.2 mmHg | LVEDP (left ventricular enddiastolic pressure), Change (anesthetized dogs; 30 µg/kg intra-venous): 0.1 ± 0.2 mmHg | LVEDP (left ventricular enddiastolic pressure), Duration of action (anesthetized dogs; 30 µg/kg intra-venous): 9 ± 7 min | LVSP (left ventricular systolic blood pressure), Action of substance (anesthetized dogs; 30 µg/kg intra-venous): 116 ± 10 mmHg | LVSP (left ventricular systolic blood pressure), Change (anesthetized dogs; 30 µg/kg intra-venous): 22 ± 4 mmHg | LVSP (left ventricular systolic blood pressure), Duration of action (anesthetized dogs; 30 µg/kg intra-venous): 8 ± 3 min | MAP (mean arterial blood pressure), Action of substance (anesthetized dogs; 30 µg/kg intra-venous): 66 ± 3 mmHg | MAP (mean arterial blood pressure), Change (anesthetized dogs; 30 µg/kg intra-venous): 25 ± 5 mmHg | MAP (mean arterial blood pressure), Duration of action (anesthetized dogs; 30 µg/kg intra-venous): 15 ± 2 min | PAP, Action of substance (anesthetized dogs; 30 µg/kg intra-venous): 16.0 ± 1 mmHg | PAP, Change (anesthetized dogs; 30 µg/kg intra-venous): 0.4 ± 0.2 mmHg | PAP, Duration of action (anesthetized dogs; 30 µg/kg intra-venous): 11 ± 6 min | SV, Action of substance (anesthetized dogs; 30 µg/kg intra-venous): 7.5 ± 2 mL/s | SV, Change (anesthetized dogs; 30 µg/kg intra-venous): 2.3 ± 1 mL/s | SV, Duration of action (anesthetized dogs; 30 µg/kg intra-venous): 12 ± 6 min | TPR (total peripheral vascular resistance), Action of substance (anesthetized dogs; 30 µg/kg intra-venous): 63 ± 13 mmHg/ml | TPR (total peripheral vascular resistance), Change (anesthetized dogs; 30 µg/kg intra-venous): 2 ± 13 mmHg/ml | TPR (total peripheral vascular resistance), Duration of action (anesthetized dogs; 30 µg/kg intra-venous): 4 ± 2 min | dp/dtmax (maximum rate of increase in the left ventricular pressure), Action of substance (anesthetized dogs; 30 µg/kg intra-venous): 2321 ± 363 mmHg/s | dp/dtmax (maximum rate of increase in the left ventricular pressure), Change (anesthetized dogs; 30 µg/kg intra-venous): 758 ± 269 mmHg/s | dp/dtmax (maximum rate of increase in the left ventricular pressure), Duration of action (anesthetized dogs; 30 µg/kg intra-venous): 15 ± 4 min | CO, Action of substance (anesthetized dogs; 300 µg/kg intra-venous): 1.32 ± 0.7 l/M | CO, Change (anesthetized dogs; 300 µg/kg intra-venous): 0.21 ± 0.6 l/M | CO, Duration of action (anesthetized dogs; 300 µg/kg intra-venous): 35 ± 23 min | HR (heart rate), Action of substance (anesthetized dogs; 300 µg/kg intra-venous): 197 ± 12 Bts/M | LVEDP (left ventricular enddiastolic pressure), Action of substance (anesthetized dogs; 300 µg/kg intra-venous): 6.8 ± 1 mmHg | LVEDP (left ventricular enddiastolic pressure), Change (anesthetized dogs; 300 µg/kg intra-venous): 1.1 ± 1 mmHg | LVEDP (left ventricular enddiastolic pressure), Duration of action (anesthetized dogs; 300 µg/kg intra-venous): 18 ± 13 min | LVSP (left ventricular systolic blood pressure), Action of substance (anesthetized dogs; 300 µg/kg intra-venous): 111 ± 11 mmHg | LVSP (left ventricular systolic blood pressure), Change (anesthetized dogs; 300 µg/kg intra-venous): 34 ± 5 mmHg | LVSP (left ventricular systolic blood pressure), Duration of action (anesthetized dogs; 300 µg/kg intra-venous): 34 ± 12 min | MAP (mean arterial blood pressure), Action of substance (anesthetized dogs; 300 µg/kg intra-venous): 58 ± 2 mmHg | MAP (mean arterial blood pressure), Change (anesthetized dogs; 300 µg/kg intra-venous): 39 ± 3 mmHg | MAP (mean arterial blood pressure), Duration of action (anesthetized dogs; 300 µg/kg intra-venous): 35 ± 15 min | PAP, Action of substance (anesthetized dogs; 300 µg/kg intra-venous): 15.7 ± 1 mmHg | PAP, Change (anesthetized dogs; 300 µg/kg intra-venous): 0.7 ± 0.3 mmHg | PAP, Duration of action (anesthetized dogs; 300 µg/kg intra-venous): 14 ± 13 min | SV, Action of substance (anesthetized dogs; 300 µg/kg intra-venous): 7.2 ± 2.5 mL/s | SV, Change (anesthetized dogs; 300 µg/kg intra-venous): 0.5 ± 2.9 mL/s | SV, Duration of action (anesthetized dogs; 300 µg/kg intra-venous): 33 ± 23 min | TPR (total peripheral vascular resistance), Action of substance (anesthetized dogs; 300 µg/kg intra-venous): 35 ± 6 mmHg/ml | TPR (total peripheral vascular resistance), Change (anesthetized dogs; 300 µg/kg intra-venous): 39 ± 9 mmHg/ml | TPR (total peripheral vascular resistance), Duration of action (anesthetized dogs; 300 µg/kg intra-venous): 6 ± 2 min | dp/dtmax (maximum rate of increase in the left ventricular pressure), Action of substance (anesthetized dogs; 300 µg/kg intra-venous): 2056 ± 385 mmHg/s | dp/dtmax (maximum rate of increase in the left ventricular pressure), Change (anesthetized dogs; 300 µg/kg intra-venous): 1053 ± 333 mmHg/s | dp/dtmax (maximum rate of increase in the left ventricular pressure), Duration of action (anesthetized dogs; 300 µg/kg intra-venous): 36 ± 11 min | CO, Action of substance (anesthetized dogs; 3000 µg/kg intra-venous): 2.02 ± 0.8 l/M | CO, Change (anesthetized dogs; 3000 µg/kg intra-venous): 0.87 ± 0.7 l/M | CO, Duration of action (anesthetized dogs; 3000 µg/kg intra-venous): 3 ± 0.4 min | HR (heart rate), Action of substance (anesthetized dogs; 3000 µg/kg intra-venous): 169 ± 34 Bts/M | HR (heart rate), Change (anesthetized dogs; 3000 µg/kg intra-venous): 30 ± 15 Bts/M | HR (heart rate), Duration of action (anesthetized dogs; 3000 µg/kg intra-venous): 80 ± 44 min | LVEDP (left ventricular enddiastolic pressure), Action of substance (anesthetized dogs; 3000 µg/kg intra-venous): 2.7 ± 3.8 mmHg | LVEDP (left ventricular enddiastolic pressure), Change (anesthetized dogs; 3000 µg/kg intra-venous): 2.3 ± 1.7 mmHg | LVEDP (left ventricular enddiastolic pressure), Duration of action (anesthetized dogs; 3000 µg/kg intra-venous): 104 ± 51 min | LVSP (left ventricular systolic blood pressure), Action of substance (anesthetized dogs; 3000 µg/kg intra-venous): 98 ± 21 mmHg | LVSP (left ventricular systolic blood pressure), Change (anesthetized dogs; 3000 µg/kg intra-venous): 55 ± 15 mmHg | LVSP (left ventricular systolic blood pressure), Duration of action (anesthetized dogs; 3000 µg/kg intra-venous): 128 ± 12 min | MAP (mean arterial blood pressure), Action of substance (anesthetized dogs; 3000 µg/kg intra-venous): 56 ± 2 mmHg | MAP (mean arterial blood pressure), Change (anesthetized dogs; 3000 µg/kg intra-venous): 45 ± 5 mmHg | MAP (mean arterial blood pressure), Duration of action (anesthetized dogs; 3000 µg/kg intra-venous): 118 ± 20 min | PAP, Action of substance (anesthetized dogs; 3000 µg/kg intra-venous): 14.6 ± 1 mmHg | PAP, Change (anesthetized dogs; 3000 µg/kg intra-venous): 1.1 ± 0.3 mmHg | PAP, Duration of action (anesthetized dogs; 3000 µg/kg intra-venous): > 177 min | SV, Action of substance (anesthetized dogs; 3000 µg/kg intra-venous): 10.6 ± 3.3 mL/s | SV, Change (anesthetized dogs; 3000 µg/kg intra-venous): 50 ± 0.7 mL/s | SV, Duration of action (anesthetized dogs; 3000 µg/kg intra-venous): 4 ± 0.0 min | TPR (total peripheral vascular resistance), Action of substance (anesthetized dogs; 3000 µg/kg intra-venous): 24 ± 7 mmHg/ml | TPR (total peripheral vascular resistance), Change (anesthetized dogs; 3000 µg/kg intra-venous): 56 ± 7 mmHg/ml | TPR (total peripheral vascular resistance), Duration of action (anesthetized dogs; 3000 µg/kg intra-venous): 27 ± 21 min | dp/dtmax (maximum rate of increase in the left ventricular pressure), Action of substance (anesthetized dogs; 3000 µg/kg intra-venous): 1977 ± 537 mmHg/s | dp/dtmax (maximum rate of increase in the left ventricular pressure), Change (anesthetized dogs; 3000 µg/kg intra-venous): 1395 ± 263 mmHg/s | dp/dtmax (maximum rate of increase in the left ventricular pressure), Duration of action (anesthetized dogs; 3000 µg/kg intra-venous): > 148 min | ED50 (anesthetized rat; Rattus norvegicus, po, 0.5 h, perorally 30 minutes before the lypressin injection, dose column in mg/kg): 73.8 mg/kg | Duration of action at the ED50 dose (anesthetized rat; perorally at various times before the lypressin injection): 4 h
